Laboratory results reported in patent US20250360130A1, “METHODS OF TREATING INDOLENT SYSTEMIC MASTOCYTOSIS” (Telios Pharma Inc., priority 2024, published 2025).

What was measured:
[1] = system: human mast cells; experiment: Calcium flux assay in antigen-stimulated human mast cells; type: cell-based; conditions: 2 hours treatment, NP-BSA stimulation
Description: Human mast cells were derived from bone marrow CD34+ cells from six healthy donors for up to eight weeks by culturing CD34+ cells in StemSpan SFEM II (Stem Cell Technologies) supplemented with stem cell factor (SCF; 100 ng/mL; R&D System), IL-6 (R&D Systems), IL-3 (R&D Systems) and 1% penicillin/streptomycin (P/S; Gibco) for the first 10 days and in StemSpan SFEM II supplemented with SCF and IL-6 and 1% P/S for the remaining time in culture. […] Supernatant was collected and histamine levels were measured using a Histamine ELISA kit (Eagle Biosciences). […] Percent of activated mast cells was calculated as number of activated mast cells over the total number of mast cells.
Compound 128 Inhibits Calcium Signaling in Human Mast Cells. […] The median fluorescence intensity of cytosolic calcium was measured across the stimulation time period and graphed to represent the calcium influx profile. The area under the curve (AUC) of the calcium influx profile was calculated and normalized as a percent of stimulated control. […]

[2] = system: serum tryptase; experiment: Serum tryptase in ISM patients; type: in vivo, human; conditions: 100 mg or 150 mg BID
Description: Also, blood samples were collected at the following timepoints: Cycle 1, Day 1: pre-dose (within 30 minutes prior to the morning dose), 0.5, 1.0, 2.0, 3.0, 4.0, and 6.0 hours (+15 minutes) post-morning dose. Cycle 1, Day 8: pre-dose (within 30 minutes prior to the morning dose) and 2 hours (+15 minutes) post-morning dose. Serum tryptase tests were conducted according to Example 14.
The measurement of serum tryptase can be followed to the procedure described in the literature (McMurray et al., Standardized indolent systemic mastocytosis evaluations across a health care system: implications for screening accuracy, Blood (2024) 144 (4): 408-419). Briefly, the procedure begins with proper patient preparation, avoiding recent physical activity or triggers that could cause mast cell activation. Venous blood samples, preferably drawn when the patient is not experiencing acute symptoms, are collected in serum separator tubes (SSTs) or plain red-top tubes, with approximately 5 mL of blood needed for analysis. After collection, the blood is allowed to clot at room temperature for 30-60 minutes before centrifugation for 10-15 minutes. The serum is then carefully separated from the cells and stored at 2-8° C. for short-term analysis or frozen at −20° C. or lower for long-term storage. […]

[3] = system: human mast cells; experiment: ISM-like mast cell chemotaxis towards conditioned media (Transwell); type: cell-based; conditions: conditioned media from ISM-like mast cells treated two hours
Description: Human mast cells were differentiated from bone marrow CD34+ cells from four healthy donors as set forth in Example 4. Cells were used to produce conditioned media in ISM-like conditions. Conditioned media was the supernatant collected from mast cells cultured with stem cell factor (100 ng/ml), sensitized with NP-IgE (0.1 μg/mL) for 18 hours, treated with Compound 128 for two hours, and stimulated with NP-BSA (antigen; 0.1 μg/mL) for four hours. Migration of mast cells in the top chamber on Transwell […] inserts (Corning) towards the antigen-stimulated conditioned media in the bottom chamber was quantified after four hours using the CellTiter-Glo™ Luminescent Cell Viability Assay Kit (Promega). The amount of luminescence is correlated with live cell numbers. Fold change over the non-activated control was calculated.

[4] = system: mast cell from an ISM patient; experiment: IgE-mediated calcium influx in ISM patient mast cells (FIG. 17); type: cell-based, human; conditions: presence of SCF, prior to antigen stimulation
Description: Mast cell from an ISM patient was treated with Compound 128 at 50 mg, 75 mg, 100 mg, and 150 mg BID dose prior to antigen (Ag) stimulation. ISM 3-2 mast cell donor MC 1061-004 C1D8 D39. Experiments performed in the presence of SCF. […] Percent of Control (POC) based on Area-under-Curve above baseline (1st value).

[5] = system: mast cells derived from ISM patients; experiment: Degranulation of mast cells grown from CD34+ blood cells from ISM patients (FIG. 22); type: cell-based, human; conditions: antigen stimulation in absence of SCF
[6] = system: mast cells; experiment: Downstream signaling proteins in antigen-stimulated mast cells (FIG. 20); type: cell-based; conditions: mast cells stimulated with an antigen
[7] = target: BTK (Homo sapiens, UniProt Q06187); experiment: BTK phosphorylation in mast cells (FIG. 19); type: cell-based; design: endogenous in cells; conditions: correlating with calcium signaling, CD63, CD203c, histamine release
Sequence of BTK (Q06187 whole entry): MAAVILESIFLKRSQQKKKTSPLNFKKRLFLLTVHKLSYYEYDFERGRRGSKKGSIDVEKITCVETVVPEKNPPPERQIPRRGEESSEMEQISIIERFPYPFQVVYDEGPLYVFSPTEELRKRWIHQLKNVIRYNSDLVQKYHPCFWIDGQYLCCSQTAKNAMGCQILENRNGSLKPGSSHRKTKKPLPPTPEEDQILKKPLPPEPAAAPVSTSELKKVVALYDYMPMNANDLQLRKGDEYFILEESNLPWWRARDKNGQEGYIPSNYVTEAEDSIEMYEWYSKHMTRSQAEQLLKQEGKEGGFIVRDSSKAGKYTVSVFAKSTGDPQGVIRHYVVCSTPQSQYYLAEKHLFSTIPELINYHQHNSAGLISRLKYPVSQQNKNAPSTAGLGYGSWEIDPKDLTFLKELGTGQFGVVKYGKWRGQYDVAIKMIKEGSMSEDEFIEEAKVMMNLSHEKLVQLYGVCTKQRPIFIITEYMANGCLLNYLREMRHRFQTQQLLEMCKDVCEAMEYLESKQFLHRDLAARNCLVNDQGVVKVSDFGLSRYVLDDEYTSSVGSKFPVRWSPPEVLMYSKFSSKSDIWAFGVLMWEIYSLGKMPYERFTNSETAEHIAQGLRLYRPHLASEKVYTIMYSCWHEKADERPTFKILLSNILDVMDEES

With `C=CC(=O)N1CCC(F)(CNc2ncnc(N)c2-c2ccc(Oc3ccccc3)cc2)CC1` [Compound 128, 1-(4-(((6-amino-5-(4-phenoxyphenyl)pyrimidin-4-yl)amino)methyl)-4-fluoropiperidin-1-yl)prop-2-en-1-one] the “calcium influx, percent of stimulated control” value ([1]; ISM-like (+SCF) mast cells) was “less than 7%”, the “calcium influx, percent of stimulated control” value ([1]; healthy (−SCF) mast cells) was under 3% and the “reduction in serum tryptase levels” value [2] was “effective in reducing serum tryptase levels”. The “chemoattractant activity of mast cells (chemotaxis, fold change over non-activated control)” value [3] was “inhibited”, the IgE-mediated calcium influx [4] was “potently inhibits” and the “degranulation of ISM patient-derived mast cells” value [5] was “inhibited the degranulation”. The “activation of multiple downstream signaling proteins” value [6] was “can be inhibited” and the “inhibition of BTK phosphorylation in mast cells” value [7] was “high potency”.
